Tests used:
[1] = Test Example B1: preservation stability of everolimus compositions and active pharmaceutical ingredient, residual everolimus by HPLC; type: physicochemical; settings: light-shielded, 60° C.
Protocol: It is to be noted that, in the analysis using liquid chromatography (HPLC) in the present test examples, the measurement was carried out under the following conditions. • Measurement column: Zorbax Eclipse XDB-C18, Rapid resolution HT, 100 mm ×4.6 mm, L8 μm • Detector: ultraviolet absorption spectrophotometer (measurement wavelength: 278 nm) • Column temperature: 45° C. • Mobile phase A: 0.1% formic acid; mobile phase B: methanol/acetonitrile=50/50 • Concentration gradient of mobile phase:
The pharmaceutical compositions obtained by the methods of Example B1 and Comparative Examples B1 to B4 (approximately 1 g each) and the active pharmaceutical ingredient of everolimus (100 mg) were each collected in a brown sample bottle, and were then preserved under light-shielded conditions at 60° C., in a desiccator, the humidity of which had been adjusted with a saturated cobalt chloride aqueous solution (relative humidity: approximately 49%), while the bottle was uncapped.
The residual amounts of everolimus 10 days and 14 days after initiation of the preservation test were measured by liquid chromatography (HPLC), and the residual percentages of everolimus at individual time points were then calculated. It is to be noted that the residual percentage was calculated according to the following formula. The results are shown in Table 5. • Residual percentage (%) of everolimus (peak area of everolimus measured by HPLC at each time point/weighed value of powders)/(peak area of everolimus measured by HPLC before preservation (initial)/weighed value of powders)× 100.

[2] = cited from earlier work

Row | decomposition reaction such as oxidation on preservation (in words) ([1]; relative humidity approximately 49%) | Residual percentage (%) of everolimus, Value on Day 10 ([1]; relative humidity approximately 49% (saturated cobalt chloride), uncapped, Day 10) [%] | Residual percentage (%) of everolimus, Value on Day 14 ([1]; relative humidity approximately 49% (saturated cobalt chloride), uncapped, Day 14) [%] | SMILES | critical relative humidity at 25° C. [2]
1 | rapidly progresses | 5 | 2 | CO[C@H]1C[C@@H]2CC[C@@H](C)[C@@](O)(O2)C(=O)C(=O)N2CCCC[C@H]2C(=O)O[C@H]([C@H](C)C[C@@H]2CC[C@@H](OCCO)[C@H](OC)C2)CC(=O)[C@H](C)/C=C(\C)[C@@H](O)[C@@H](OC)C(=O)[C@H](C)C[C@H](C)/C=C/C=C/C=C/1C [40-O-(2-hydroxyethyl)rapamycin] | –
2 | – | – | – | OC[C@H]1O[C@@H](O[C@H]2[C@H](O)[C@@H](O)C(O)O[C@@H]2CO)[C@H](O)[C@@H](O)[C@H]1O (stereo partly shown) [lactose] | ≥ 95%
3 | – | – | – | OC[C@@H](O)[C@@H](O)[C@H](O)[C@H](O)CO [mannitol] | ≥ 95%
4 | – | – | – | OC[C@@H](O)[C@@H](O)[C@H](O)[C@@H](O)CO [sorbitol] | approximately 70%
5 | – | – | – | OC[C@H]1O[C@H](O[C@H]2O[C@H](CO)[C@@H](O)[C@H](O)[C@H]2O)[C@H](O)[C@@H](O)[C@@H]1O [trehalose] | ≥ 95%

Source: patent US20180214423A1, “PHARMACEUTICAL COMPOSITION COMPRISING RAPAMYCIN OR DERIVATIVE THEREOF, AND METHOD FOR PRODUCING THE SAME” (NIPPON KAYAKU KABUSHIKI KAISHA, priority 2015, published 2018)
